The term IC50 denotes the concentration that inhibits the measured activity by half. Low values mean inhibition by little substance, high ones a need for much substance. As usually defined, the MIC is the lowest concentration found to suppress growth.

≈ marks a conversion by molar mass, not a printed value.

From ChEMBL document CHEMBL5233247, “Recent advances in DNA gyrase-targeted antimicrobial agents” (Eur J Med Chem, 2020) come the findings set out here.

For test [1], the system named is Staphylococcus aureus. As to the kind of experiment: Antibacterial activity against methicillin-sensitive Staphylococcus aureus. The class given is functional, organism-based.
Test [2] concerns Staphylococcus aureus. As to the kind of experiment: Antibacterial activity against methicillin-resistant Staphylococcus aureus. The class given is functional, organism-based.
The test system of test [3] is Staphylococcus aureus. Kind of test: Antimicrobial activity against Staphylococcus aureus ATCC 25923 incubated for 18 to 24 hrs by double micro-dilution method. The class given is functional. To be noted: time 18-24 hrs.
The subject of a further test is Pseudomonas aeruginosa. As to the kind of experiment: Antimicrobial activity against Pseudomonas aeruginosa ATCC 27853 incubated for 18 to 24 hrs by double micro-dilution method. The class given is functional. To be noted: time 18-24 hrs.
The test system of a further test is Klebsiella pneumoniae. Kind of test: Antimicrobial activity against Klebsiella pneumoniae ATCC 13883 incubated for 18 to 24 hrs by double micro-dilution method. The class given is functional. Conditions: time 18-24 hrs. Background: In broth dilution the organism is exposed to a series of concentrations in liquid medium.
The test system of test [4] is Enterococcus faecalis. Kind of test: Antimicrobial activity against Enterococcus faecalis ATCC 29212 incubated for 18 to 24 hrs by double micro-dilution method. Conditions: time 18-24 hrs. The class given is functional.
In the next test the target is DNA gyrase (Escherichia coli, UniProt P0AES4+P0AES6). Kind of test: Inhibition of Escherichia coli DNA gyrase. The class given is protein-complex assay.
Test [5] relates to Acinetobacter haemolyticus. Kind of test: Antimicrobial activity against Acinetobacter haemolyticus ATCC 19002 incubated for 18 to 24 hrs by double micro-dilution method. The class given is functional. To be noted: time 18-24 hrs.
The subject of test [6] is Bacillus subtilis. Kind of test: Antibacterial activity against Bacillus subtilis DSM 10 by microdilution assay. The class given is functional.
A further test concerns Mycolicibacterium phlei. Kind of test: Antibacterial activity against Mycobacterium phlei DSM 750 by microdilution assay. The class given is functional.
For test [7], the system named is Mycobacterium tuberculosis. As to the kind of experiment: Anti-tubercular activity against Mycobacterium tuberculosis H37Rv strain. The class given is functional.
The subject of test [8] is Mycobacterium tuberculosis. As to the kind of experiment: Antimycobacterial activity against Mycobacterium tuberculosis incubated for 7 days by MABA assay. The class given is functional. Conditions: 168 h, time 7 day.
Test [9] has as its target DNA gyrase subunit A/DNA gyrase subunit B (Mycobacterium tuberculosis (strain ATCC 25618 / H37Rv), UniProt P9WG45+P9WG47). Kind of test: Inhibition of Mycobacterium tuberculosis (MTB) DNA gyrase using pBR322 DNA by supercoiling assay. The class given is protein-complex assay.
Another test has as its system Escherichia coli. Kind of test: Antimicrobial activity against Escherichia coli MSCL 332 assessed as inhibition of bacterial growth incubated for 24 hrs by standardized broth dilution method. The class given is functional.
Test [10] relates to Staphylococcus aureus. Kind of test: Antimicrobial activity against Staphylococcus aureus MSCL 334 assessed as inhibition of bacterial growth incubated for 24 hrs by standardized broth dilution method. The class given is functional.
Test [11] relates to Bacillus subtilis. Kind of test: Antimicrobial activity against Bacillus subtilis assessed as inhibition of bacterial growth incubated for 24 hrs by standardized broth dilution method. The class given is functional.
For the next test, the system named is Streptococcus pneumoniae. Kind of test: Antibacterial activity against Streptococcus pneumoniae. The class given is functional.
The test system of test [12] is Staphylococcus aureus. Kind of test: Antibacterial activity against healthcare-acquired methicillin-resistant Staphylococcus aureus. The class given is functional.
The next test has as its system Salmonella typhimurium. Kind of test: Antibacterial activity against Salmonella typhimurium assessed as inhibition was bacterial growth by broth micro dilution method. The class given is functional, Salmonella enterica subsp. enterica serovar Typhimurium. Conditions: Salmonella enterica.
In test [13] the test system is Enterococcus faecalis. Kind of test: Antibacterial activity against Enterococcus faecalis. The class given is functional.
The next test deals with Salmonella enterica. Kind of test: Antibacterial activity against Salmonella enterica assessed as inhibition was bacterial growth by broth micro dilution method. The class given is functional.
For the next test, the system named is Listeria monocytogenes. As to the kind of experiment: Antimicrobial activity against Listeria monocytogenes assessed as inhibition of visible growth incubated for 24 hrs by agar-dilution method. The class given is functional.
In test [14] the test system is Staphylococcus aureus. Kind of test: Antibacterial activity against community-acquired methicillin-resistant Staphylococcus aureus. The class given is functional.
A short description of test [15]: Inhibition of Salmonella typhimurium DNA gyrase. Details: species or system Salmonella enterica subsp. enterica serovar Typhimurium.
Test [16] deals with Salmonella enterica subsp. enterica serovar Gallinarum. As to the kind of experiment: Antimicrobial activity against Salmonella gallinarum assessed as inhibition of visible growth incubated for 24 hrs by agar-dilution method. The class given is functional.
Another test concerns Acinetobacter baumannii. Kind of test: Antibacterial activity against Acinetobacter baumannii. The class given is functional.

DNA gyrase subunit A/DNA gyrase subunit B, sequence (P9WG45 whole entry): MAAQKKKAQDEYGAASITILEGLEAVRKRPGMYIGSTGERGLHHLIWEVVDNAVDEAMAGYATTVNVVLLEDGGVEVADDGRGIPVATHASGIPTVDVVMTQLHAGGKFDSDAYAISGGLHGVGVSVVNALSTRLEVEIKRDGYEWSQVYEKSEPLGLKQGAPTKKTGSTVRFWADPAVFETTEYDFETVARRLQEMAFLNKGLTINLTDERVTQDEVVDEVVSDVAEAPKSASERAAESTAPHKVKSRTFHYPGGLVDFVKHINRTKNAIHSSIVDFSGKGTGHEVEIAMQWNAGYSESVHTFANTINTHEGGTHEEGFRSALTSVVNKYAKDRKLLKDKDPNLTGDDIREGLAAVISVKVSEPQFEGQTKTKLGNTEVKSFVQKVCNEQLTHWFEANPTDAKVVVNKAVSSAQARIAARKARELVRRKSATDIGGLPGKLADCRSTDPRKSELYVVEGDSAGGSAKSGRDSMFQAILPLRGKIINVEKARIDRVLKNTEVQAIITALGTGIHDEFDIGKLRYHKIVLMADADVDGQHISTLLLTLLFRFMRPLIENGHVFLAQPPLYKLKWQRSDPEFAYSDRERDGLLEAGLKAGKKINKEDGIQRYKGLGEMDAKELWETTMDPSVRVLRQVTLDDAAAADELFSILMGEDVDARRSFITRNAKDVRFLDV
DNA gyrase subunit A/DNA gyrase subunit B, sequence (P9WG47 whole entry): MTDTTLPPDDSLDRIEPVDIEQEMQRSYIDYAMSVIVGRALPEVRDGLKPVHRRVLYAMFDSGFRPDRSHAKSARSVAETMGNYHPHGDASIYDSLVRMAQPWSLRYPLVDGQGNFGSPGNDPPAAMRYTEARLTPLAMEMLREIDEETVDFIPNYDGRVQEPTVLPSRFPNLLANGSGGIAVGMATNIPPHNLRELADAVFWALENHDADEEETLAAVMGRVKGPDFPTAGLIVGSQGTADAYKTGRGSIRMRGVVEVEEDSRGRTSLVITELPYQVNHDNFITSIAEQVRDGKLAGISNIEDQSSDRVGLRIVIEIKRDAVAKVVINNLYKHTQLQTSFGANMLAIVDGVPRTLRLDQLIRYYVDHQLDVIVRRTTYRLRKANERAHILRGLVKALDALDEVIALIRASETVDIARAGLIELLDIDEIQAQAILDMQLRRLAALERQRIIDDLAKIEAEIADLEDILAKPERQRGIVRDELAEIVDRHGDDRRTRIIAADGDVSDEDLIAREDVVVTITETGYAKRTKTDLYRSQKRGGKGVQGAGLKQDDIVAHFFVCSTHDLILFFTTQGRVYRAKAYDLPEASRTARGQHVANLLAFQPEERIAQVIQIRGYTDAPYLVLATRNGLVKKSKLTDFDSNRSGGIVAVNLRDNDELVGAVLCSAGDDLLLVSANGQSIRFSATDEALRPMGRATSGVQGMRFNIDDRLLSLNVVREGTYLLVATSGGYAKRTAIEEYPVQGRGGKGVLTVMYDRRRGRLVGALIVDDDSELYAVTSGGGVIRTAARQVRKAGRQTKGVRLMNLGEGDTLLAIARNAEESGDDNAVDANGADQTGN

As for `CCn1cc(C(=O)O)c(=O)c2ccc(C)nc21` [NALIDIXIC ACID], the IC50 with Staphylococcus aureus [1] and with Staphylococcus aureus [2] was 47 µg/mL (≈ 202 µM) each time.

`O=C(O)c1cn(C2CC2)c2cc(N3CCN(Cn4nc(CN5CCN(c6ccccc6)CC5)n(Cc5ccccc5)c4=O)CC3)c(F)cc2c1=O`: the MIC stood at 8 µg/mL (≈ 11.5 µM) with Staphylococcus aureus [3]; 0.125 µg/mL (≈ 0.18 µM) with Pseudomonas aeruginosa; 0.125 µg/mL (≈ 0.18 µM) in the test on Klebsiella pneumoniae; 8 µg/mL (≈ 11.5 µM) with Enterococcus faecalis [4]; 0.125 µg/mL (≈ 0.18 µM) in test [5]. On DNA gyrase, this compound yielded an IC50 of 750 nM.

For the compound `COc1c(NC(=O)c2ccc(NC(=O)[C@H](CC#N)NC(=O)c3ccc(NC(=O)/C(C)=C/c4ccc(O)cc4)cc3)c(OC)c2O)ccc(C(=O)O)c1O`, the values for the MIC against Bacillus subtilis [6] and in the test on Mycolicibacterium phlei were 0.062 µM (≈ 0.0449 µg/mL) and 2 µM (≈ 1.45 µg/mL), respectively.

On DNA gyrase, `O=C1COc2ccc(CNC3CCN(CCn4c(=O)c5ncoc5c5ccc(F)cc54)CC3)nc2N1` gave an IC50 of 426 nM.

Compound `O=C(O)C(=O)Nc1nc2ccc(NC(=O)c3cc(Br)c(Br)[nH]3)cc2s1` gave an IC50 against DNA gyrase of 58 nM.

For the compound `COc1cc(/C=N/Nc2nc(-c3ccc([N+](=O)[O-])cc3)cs2)ccc1Oc1ccnc2cc(Cl)ccc12`, inhibition of growth in test [7] (MIC) required 3.12 µM (≈ 1.66 µg/mL).

Regarding `COc1cc(/C=N/Nc2nc(-c3ccc(Br)cc3)cs2)ccc1Oc1ccnc2cc(Cl)ccc12`, the MIC in test [7] was 3.12 µM (≈ 1.77 µg/mL).

Compound `COC(=O)c1ccc(CNC(=O)[C@H](Cc2ccc(O)cc2)NC(=O)c2cc(Br)c(Br)[nH]2)cc1` registered an IC50 against DNA gyrase of 970 nM.

`COC(=O)CNC(=O)c1ccc(NC(=O)c2cc(Cl)c(Cl)[nH]2)c(OCC(C)C)c1`: the IC50 at DNA gyrase amounted to 2300 nM.

`Cc1ccc(NC(=S)N2CCN(c3nc(=O)c4cc([N+](=O)[O-])ccc4s3)CC2)cc1`: the lowest concentration to inhibit growth in test [8] (MIC) was 1.82 µM (≈ 0.804 µg/mL). Half-maximal inhibition in [9] (IC50) was put at 770 nM.

At DNA gyrase, `CCNC(=O)Nc1nc2ccc(NC(=O)Cc3csc(NC(C)=O)n3)cc2s1` showed an IC50 of 5600 nM.

`O=C(O)CNC(=O)Cc1csc(NC(=O)c2cc(Br)c(Br)[nH]2)n1` came in with a half-maximal inhibitory concentration (IC50) against DNA gyrase of 15900 nM.

In turn, `CCNC(=O)Nc1nc2ccc(NC(=O)Cc3csc(NC(=O)OC(C)(C)C)n3)cc2s1` had an IC50 against DNA gyrase of 3900 nM.

Compound `O=C(O)C(=O)Nc1ccc(NC(=O)c2cc(Br)c(Br)[nH]2)cc1` registered an IC50 against DNA gyrase of 180 nM.

With `CCCCCCCOCC[N+]1(C)CCCc2ccccc21.[I-]` (configuration not stated), the minimum inhibitory concentration (MIC) in the test on Escherichia coli was 128 µg/mL; in the test with Staphylococcus aureus [10], 1 µg/mL; in the test on Bacillus subtilis [11], 2 µg/mL.

Turning to `O=c1nc(N2CCN(C(=S)Nc3ccccc3)CC2)sc2ccc([N+](=O)[O-])cc12`, it took 4.41 µM (≈ 1.89 µg/mL) to inhibit growth in [8] (MIC). Further, the IC50 in test [9] is 510 nM.

As to `CCCCCCCOCC[N+]1(C)CCc2ccccc2C1.[I-]` (configuration not stated), the MIC in the test on Escherichia coli was 128 µg/mL; in the test on Staphylococcus aureus [10], 8 µg/mL; in the test with Bacillus subtilis [11], 128 µg/mL.

`O=C1COc2cc(F)c(CNC3CCN(CCn4c(=O)c5nocc5c5ccc(F)cc54)CC3)nc2N1` showed an IC50 against DNA gyrase of 411 nM.

Compound `O=C1COc2ccc(CNC3CCN(CCn4c(=O)c5nocc5c5ncccc54)CC3)nc2N1` had an IC50 against DNA gyrase of 442 nM.

Consider `COc1c(NC(=O)c2ccc(NC(=O)[C@@H](NC(=O)c3ccc(NC(=O)/C(C)=C/c4ccc(O)cc4)cc3)C(C)O)c(OC)c2O)ccc(C(=O)O)c1O` (some centres not stated), for which the MIC in the test on Bacillus subtilis [6] was 0.5 µM (≈ 0.364 µg/mL); against Mycolicibacterium phlei, 2 µM (≈ 1.46 µg/mL).

As to `O=C(O)c1cn(C2CC2)c2cc(N3CCNCC3)c(F)cc2c1=O` [CIPROFLOXACIN], the MIC against Streptococcus pneumoniae came to 0.39 µg/mL (≈ 1.18 µM); with Staphylococcus aureus [12], 0.2 µg/mL (≈ 0.604 µM); with Salmonella typhimurium it was 0.016 µg/mL (≈ 0.0483 µM); against Enterococcus faecalis [13], 0.79 µg/mL (≈ 2.38 µM); in [7], 12.5 µM (≈ 4.14 µg/mL); with Salmonella enterica, 0.016 µg/mL (≈ 0.0483 µM). The MIC with Staphylococcus aureus [1] was 0.098 µg/mL (≈ 0.296 µM); with Listeria monocytogenes it was 0.125 µg/mL (≈ 0.377 µM); with Staphylococcus aureus [14], 6.3 µg/mL (≈ 19 µM); in test [16] it was 0.125 µg/mL (≈ 0.377 µM); in the test on Acinetobacter baumannii, 0.78 µg/mL (≈ 2.35 µM). In test [15], this compound came in with a half-maximal inhibitory concentration (IC50) of 0.25 µg/mL (≈ 0.754 µM).

Take `O=C1COc2ccc(CNC3CCN(CCn4c(=O)c5nocc5c5ccc(F)cc54)CC3)nc2N1`: on DNA gyrase, the IC50 was 426 nM.
